Test results published in ChEMBL document CHEMBL1201862, “PubChem BioAssay data set” (2004).
Active and inactive are the calls of the source.

Columns and labels:
[1] = molecular target: T1, High affinity choline transporter 1 (Homo sapiens, UniProt Q9GZV3); experiment: human choline transporter blockers, potency – cell-based, 5-point CRC, membrane potential dye, dose response (AID 504840); format: functional
T1 sequence (Q9GZV3 whole entry): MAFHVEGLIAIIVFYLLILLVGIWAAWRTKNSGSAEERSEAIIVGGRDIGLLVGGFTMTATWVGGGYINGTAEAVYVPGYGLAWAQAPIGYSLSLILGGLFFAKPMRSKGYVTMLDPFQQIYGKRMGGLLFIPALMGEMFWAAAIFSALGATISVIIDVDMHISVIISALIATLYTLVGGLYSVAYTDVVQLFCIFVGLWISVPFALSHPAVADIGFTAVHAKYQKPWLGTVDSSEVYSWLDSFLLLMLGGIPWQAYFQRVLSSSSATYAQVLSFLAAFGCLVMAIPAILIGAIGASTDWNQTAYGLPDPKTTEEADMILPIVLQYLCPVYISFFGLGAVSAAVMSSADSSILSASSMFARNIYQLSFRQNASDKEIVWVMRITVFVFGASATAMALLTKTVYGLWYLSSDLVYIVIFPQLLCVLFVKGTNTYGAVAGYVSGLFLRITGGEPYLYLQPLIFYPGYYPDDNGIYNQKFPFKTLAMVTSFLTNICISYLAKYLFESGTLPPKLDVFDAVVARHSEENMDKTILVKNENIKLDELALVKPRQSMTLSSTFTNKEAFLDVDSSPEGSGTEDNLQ

[2] = molecular target: T1, High affinity choline transporter 1; experiment: human choline transporter blockers, potency – cell-based, 10-point CRC, membrane potential dye, dose response (AID 588401); format: functional;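 further: membrane potential dye fluorescence of choline-evoked depolarization via CHT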
[3] = luciferase reporter signal suppression in cells – H4 neuroglioma cells, luminescence, dose response (AID 1990); format: functional, cell-based
[4] = test system: Streptococcus sp. 'group A'; experiment: Streptococcus pyogenes SK(-)GAS viability under kanamycin – luminescence, BacTiterGlo, confirmation, counter-screen for streptokinase expression inhibitor project, dose response (AID 1900); format: functional, organism-based
[5] = Luminescence Cell-Based Dose Response HTS to Identify Inhibitors of 5'UTR Stem-Loop Driven Prion Protein mRNA Translation in H4 Neuroglioblastoma Cells. [Related pubchem assays: 1827 (Project Summary), 1813 (Primary HTS)]; format: functional
[6] = alpha-synuclein stem-loop luciferase translation blockers – H4 neuroglioma cells, luminescence, confirmation (AID 1988); format: functional, cell-based
Streptokinase A = molecular target: T2, Streptokinase A (Streptococcus pyogenes serotype M1, UniProt P10520); experiment: viability-normalized secreted streptokinase activity reduction – plasminogen activation absorbance, OD405, dose response (AID 1914); format: functional, Streptococcus pyogenes M1 GAS;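 further: secreted streptokinase activity via plasminogen activation per viability signal from cell pellet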
T2 sequence (P10520 whole entry): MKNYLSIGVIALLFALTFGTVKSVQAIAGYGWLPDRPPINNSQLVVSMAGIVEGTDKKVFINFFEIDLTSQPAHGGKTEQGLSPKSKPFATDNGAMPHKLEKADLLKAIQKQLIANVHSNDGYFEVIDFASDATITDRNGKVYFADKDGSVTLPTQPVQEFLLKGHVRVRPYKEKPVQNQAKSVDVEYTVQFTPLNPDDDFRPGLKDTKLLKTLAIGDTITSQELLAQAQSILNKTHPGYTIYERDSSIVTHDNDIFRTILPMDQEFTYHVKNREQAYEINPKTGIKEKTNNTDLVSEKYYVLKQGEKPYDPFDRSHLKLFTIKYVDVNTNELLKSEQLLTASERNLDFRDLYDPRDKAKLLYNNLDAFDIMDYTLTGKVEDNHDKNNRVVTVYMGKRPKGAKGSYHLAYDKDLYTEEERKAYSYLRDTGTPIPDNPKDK

[7] = Trypanosoma cruzi growth suppression in host cells – NIH3T3 host cells, beta-gal luminescence, confirmation (AID 2044); format: functional, cell-based;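 further: intracellular parasites grown in NIH/3T3 mouse fibroblasts as host cells; luminescent beta-galactosidase reporter signal from transgenic T. cruzi replicating inside host cells; inhibitors lower the luminescence signal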
[8] = microbe, parasite or virus in culture; format: functional; settings: Mycobacterium tuberculosis
[9] = NIH3T3 cell viability loss – ATP luminescence, mouse fibroblasts, counter-screen, dose response (AID 2010); format: functional, cell-based;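 further: cells exposed to compound for about 90 hours before reading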
Streptococcus = experiment: GAS UMAA2166 growth inhibition – luminescence, BacTiterGlo, counter-screen for streptokinase expression inhibitor project, dose response (AID 1915); format: functional, organism-based;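 further: potency for reduction of bacterial viability or growth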
[10] = THP-1 cell cytotoxicity, dose response, cytotoxicity control for non-replicating M. tuberculosis project (AID 489025); format: functional
[11] = HepG2 cell cytotoxicity, dose response, cytotoxicity control for non-replicating M. tuberculosis project (AID 489018); format: functional; settings: Mycobacterium tuberculosis
[12] = Vero E6 cell cytotoxicity, dose response, cytotoxicity control for non-replicating M. tuberculosis project, secondary assay (AID 492998); format: functional, VeroE6; settings: Vero C1008
cells = format: functional
INS1 = experiment: INS-1E survival protection against cytokine death – cell-based, luminescence, retest, dose response (AID 449756); format: functional; settings: Rattus norvegicus;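 further: cell death triggered by IL-1 beta plus TNF-alpha plus IFN-gamma mixture; protective hits raise ATP signal compared with cytokine alone wells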
[13] = Vero cell cytotoxicity, dose response, cytotoxicity control for M. tuberculosis growth inhibitor project, Vero cells, purified and synthesized compounds, set 5 (AID 504909); format: functional; settings: Mycobacterium tuberculosis
[14] = A Cell Based Secondary Assay to Explore Cytotoxicity in THP-1 Cells of Compounds that Modulate Mycobacterium tuberculosis in Media Containing Glycerol versus Media without Glycerol (2).; format: functional
[15] = Vero cell cytotoxicity, cytotoxicity control for M. tuberculosis inhibitor project, purified and synthesized samples, set 3 (AID 504684); format: functional
[16] = HepG2 cell cytotoxicity, cytotoxicity control, set 4 (AID 504910); format: functional; settings: Mycobacterium tuberculosis
[17] = THP-1 cell cytotoxicity, cytotoxicity control, set 4 (AID 504911); format: functional; settings: Mycobacterium tuberculosis
[18] = A Cell Based Secondary Assay to Explore Cytotoxicity in HepG2 Cells of Compounds that Modulate Mycobacterium tuberculosis in Media Containing Glycerol versus Media without Glycerol (2).; format: functional
[19] = HepG2 cell cytotoxicity, dose response, cytotoxicity control, set 3 (AID 504853); format: functional; settings: Mycobacterium tuberculosis
[20] = THP-1 cell cytotoxicity, dose response, cytotoxicity control, set 3 (AID 504852); format: functional; settings: Mycobacterium tuberculosis
[21] = Vero cell cytotoxicity, dose response, cytotoxicity control for M. tuberculosis growth inhibitor project, Vero cells, purified and synthesized compounds, set 4 (AID 504854); format: functional; settings: Mycobacterium tuberculosis

In the case of `Cc1ccc[n+](CC(=O)c2ccc(Br)cc2)c1`, the IC50 [1] is reported as 0.0775 µM (inconclusive) and the IC50 [2] is reported as 0.713 µM (active).
For `c1ccc(N=C2N=C(Nc3ccccn3)c3ccccc32)nc1`, the EC50 [3] was 10.5 µM (active), the EC50 [4] was 5.41 µM (active) and the EC50 [5] was > 120 µM (not active). The EC50 [6] was 13.4 µM (active), the EC50 (Streptokinase A) was 22.2 µM (active) and the EC50 [7] was 0.687 µM (active). For the same compound, the CC50 [8] was > 40 µM (active), the EC50 [9] was 17.7 µM (active) and the EC50 (Streptococcus) was > 150 µM (not active). For the same compound, the CC50 [10] was 0.148 µM (active), the CC50 [11] was < 0.039 µM (active) and the CC50 [12] was 0.5 µM (active). The IC50 (cells) was < 0.1 µM (active), the AC50 (INS1) was 0.795 µM (active) and the CC50 [13] was 60.5 µM (active). For the same compound, the CC50 [14] was < 0.2 µM (active), the CC50 [15] was < 0.2 µM (active) and the CC50 [16] was > 41.3 µM (active). The CC50 [17] was > 76.9 µM (active), the CC50 [18] was < 0.1 µM (active) and the CC50 [19] was 21.2 µM (active). For the same compound, the CC50 [20] was > 71.4 µM (active) and the CC50 [21] was > 100 µM (active).
